Laboratory results reported in patent US20160008431A1, “Tumor Therapy With Antitumor Agents In Combination With Sindbis Virus-Based Vectors” (priority 2008, published 2016).
“Also recorded” adds a separate entry of the source.

Key:
ES2/Fluc tumors [1] = experiment: Sindbis+CPT-11 ES2/Fluc tumor survival experiment; type: in vivo, Es1^c/SCID mice; details: untreated mice survived about 4 weeks; i.p. treatment 4 times a week for 5 weeks from day 5
Method: FIGS. 1A and 1B: Survival of tumor-bearing mice treated with Sindbis+CPT-11. (A) Mice were injected with 1.5×10^6 ES2/Fluc cells on day 0. Mice were then divided into 4 groups of 10. Treatment started on day 5, and lasted for 5 weeks, in which mice were treated 4 times a week. Mice treated with Sindbis/LacZ received I.P. injection of ˜10^7 plaque-forming units of the vector in 0.5 mL OptiMEM; mice treated with CPT-11 received I.P. injections of 15 mg/kg body weight of the recipient of CPT-11 in […]. Mice treated with the combined treatments were treated with Sindbis/LacZ and CPT-11 on the same day (Sindbis/LacZ in the morning, and CPT-11 in the evening). […] The experiment was repeated twice (for a total of 20 mice per group), and the results were combined into one graph. (B) Tumor load in mice treated with Sindbis/LacZ+CPT-11. On day 4 after injecting the mice with 10 million ES2/Fluc cells, tumors developed in various IP locations (top). […]
C.B-17 SCID mice (Taconic, Germantown, N.Y.) were bred with a plasma esterase deficient mouse model—Es1^c Foxn1^nu/J (Jackson laboratory, Bar Harbor, Me.). […] Briefly, blood was collected from F2 mice, and was tested by FACS analysis to determine T and B cell levels, and the plasma esterase activity was measured using a nitrophenyl acetate assay (Spectrum, Gardena, Calif.). […]

[2] = test system: luciferase-expressing Mia Paca cells; experiment: Mia Paca pancreatic cancer model, Sindbis vectors with and without CPT-11; type: in vivo, Es1/SCID mice; details: treated 4 times a week for 2 weeks; images since day 18
Method: FIG. 3 is a graph showing the effect of Sindbis virus vectors with and without CPT-11 treatment on pancreatic cancer in Mia Paca mice, a model for pancreatic cancer.
Female Es1/SCID mice were inoculated intraperitoneally with 5 million luciferase-expressing Mia Paca cells (a model for pancreatic cancer) on day 0. Mice were then divided into 4 groups: Mock (untreated), Sindbis/LacZ treated, CPT-11 treated, and Sindbis/LacZ+CPT-11 treated. The mice were treated 4 times a week, for 2 weeks, and then the treatment was stopped.

[3] = in human; cited from earlier work
endothelium cells = details: cited from earlier work
cancer cells = experiment: Pretreatment of cancer cells with drug, susceptibility to Sindbis vector; type: cell-based; details: data not shown
s.c. N2a tumors = experiment: s.c. N2a neuroblastoma model: vascular leakiness, vector transduction, tumor growth; type: in vivo, SCID mice; details: for tumor vascular permeability / leakiness (AngioSense signals): metronomic i.p. Paclitaxel 16 mg/Kg or Cisplatin 4 mg/Kg
Text: FIG. 7A-7D. […] We used 1:1 RD-Sindbis/LacZ:RC-Sindbis/Fluc mixture as a control. AngioSense® 750 (0.66 nmol) was i.v. injected on day 1. […] B, quantitative presentation of luciferase signals in tumors. C and D, quantitative presentation of AngioSense® signals of tumors receiving indicated treatments.
A, relative growth curves of s.c. N2a tumors treated with Paclitaxel alone (Taxol®) or untreated (Ctrl). B, relative tumor growth curves of different treatment groups as in FIG. 5.
FIG. 9A-9C. […] Starting on day 0, daily treatments of Cisplatin (4 mg/Kg or 12 mg/m^2 compared with maximum tolerated dose of 100 mg/m^2 in humans) were i.p. injected into SCID mice bearing s.c. N2a tumors. One last Cisplatin treatment was administrated on day 4. A, to visualize vascular leakiness, AngioSense® 750 (0.66 nmol) was i.v. injected on day 1 and imaged on day 2. B, RC-Sindbis/Fluc was i.v. injected on day 0 and day 2. Luciferase activities in tumors that indicated active vector propagation were monitored on day 3. C, relative tumor growth curves of different treatment groups.
All animal experiments were performed in accordance with NIH and institutional guidelines. BHK cells (1.5×10^6/mouse) were s.c. inoculated into SCID mice (female, 6-8 week old, Taconic, Germantown, N.Y.). The mouse neuroblastoma tumors were induced by s.c. injection of 1.5×10^6 N2a cells into SCID mice 13 days prior to treatments. For better visualization, we remove excessive fur on the skin over the tumor and its surrounding region. The setting for dual mPlum/AngioSense imaging is as following: ex605/em660, 680 and 700 nm, followed by ex745/em800, 820 and 840 nm. Bioluminescent imaging of luciferase activities was performed as described before (7). Tumor sizes were measured using the formula: π/6×length (mm)×width (mm)^2.
In order to test whether chemotherapeutic agents synergize with Sindbis vector in tumor eradication by modulating vascular leakiness, we used a s.c. mouse N2a neuroblastoma model.
We used a replication-competent (RC) Sindbis/Fluc vector (21) instead of an RD one to further enhance the tumor transduction signal output (FIG. 7B) in N2a tumors. RC vector carries a full set of viral structural genes to support its replication. Specific tumor infection of RC vector could result in oncolytic effects by intratumoral vector replication and amplification. […] To ensure temporary expression of VEGF, we used replication defective RD-Sindbis/VEGF mixed with RC-Sindbis/Fluc (1:1).

ES2/Fluc tumors [4] = experiment: Sindbis+Taxol ES2/Fluc tumor growth and survival experiment; type: in vivo, SCID mice
Method: FIG. 2A-2D: Survival and tumor load in tumor-bearing mice treated with Sindbis+Taxol®. Mice were injected with 4×10^6 ES2/Fluc cells on day 0. Mice were then divided into 4 groups of 9. Mice were treated with Sindbis/LacZ (I.P.) daily from day 1 to day 11, and with Taxol® (0.4 mg/mouse) on day 3, 6 and 10. (B) Quantitative analysis of tumor growth, day 1 tumor load signal was set at 100% for each individual mouse for comparison with later images (day 3, 6, and 10). (C) Mouse survival was monitored. (D) The surviving mice were imaged on day 46 to determine if they have any tumors.
Sindbis+Taxol® ES2/Fluc tumor growth and survival experiment: Female SCID mice (8-12 weeks old) received intraperitoneal injections of 4×10^6 ES2/Fluc cells on day 0, and tumor growth was validated by imaging the mice on day 1. For quantitative analysis of tumor growth, day 1 tumor load signal was set as 100% for each individual mouse for comparison with subsequent images. Mice (nine per group) were treated with Sindbis/LacZ (I.P.) daily from day 1 to day 11, and with Taxol® (0.4 mg/mouse) on day 3, 6 and 10. Mice were imaged on days 1, 3, 6, 10, and 46. A tumor free mouse was used as a negative control.

Compound	additional survival compared with untreated mice (ES2/Fluc tumors [1]) [days]	tumor status on images [2]	maximum tolerated dose [3] [mg/m^2]	sensitivity of endothelium cells relative to tumor cells, times more sensitive (endothelium cells)	susceptibility of pretreated cancer cells to Sindbis vector (cancer cells)	tumor vascular permeability / leakiness (AngioSense signals) (s.c. N2a tumors)	tumor growth, drug alone (s.c. N2a tumors; relative growth curves, FIG. 8A)	tumor level of survivors on day 46 (ES2/Fluc tumors [4]; IVIS imaging, compared with tumor-free mouse)	tumor load / tumor growth by imaging (ES2/Fluc tumors [4]; days 3, 6 and 10, day 1 signal set at 100%)	mice surviving on day 46 (ES2/Fluc tumors [4]; nine mice per group, treatment stopped for 35 days)	Sindbis vector delivery and transduction (luciferase signals in tumors) (s.c. N2a tumors; RC-Sindbis/Fluc vector)	therapeutic efficacy in combination with Sindbis vectors (s.c. N2a tumors; relative tumor growth curves, FIG. 8B, 9C)
CCc1c2c(nc3ccc(OC(=O)N4CCC(N5CCCCC5)CC4)cc13)-c1cc3c(c(=O)n1C2)COC(=O)[C@]3(O)CC [CPT-11, irinotecan]	15	have tumors that appear to be growing	–	–	–	–	–	–	–	–	–	–
CC(=O)O[C@H]1C(=O)[C@@]2(C)[C@H]([C@H](OC(=O)c3ccccc3)[C@]3(O)C[C@H](OC(=O)[C@H](O)[C@@H](NC(=O)c4ccccc4)c4ccccc4)C(C)=C1C3(C)C)[C@]1(OC(C)=O)CO[C@@H]1C[C@@H]2O [Paclitaxel]	–	–	175	10-100	does not enhance	significantly increased; also recorded: enhance tumor vascular leakiness	suppresses tumor growth	much higher tumor levels	still show tumor growth	one	–	–
N.N.[Cl][Pt][Cl] [Cisplatin]	–	–	100	–	–	significantly increased; also recorded: enhancement in tumor vascular leakiness	–	–	–	–	enhanced	better therapeutic efficacy
